Assays:
Format in all cases: biochemical
JAK1 = biological target: T1, JAK1 (Homo sapiens, UniProt P23458); experiment: JAK1 Inhibition Assay (Omnia kinase fluorescence peptide substrate assay); conditions: averaged IC50 ranges; assay of Example B; 40 μM (Km app) or 1 mM ATP, 15 nM JAK1
T1 construct: purchased Invitrogen Corporation, Carlsbad, Calif; PV4775

JAK3 = biological target: T2, JAK3 (Homo sapiens, UniProt P52333); experiment: JAK3 Inhibition Assay (Omnia kinase fluorescence peptide substrate assay); conditions: averaged IC50 ranges; assay of Example D; 10 μM (Km app) or 1 mM ATP, 2.5 nM JAK3
T2 construct: purchased Invitrogen Corporation, Carlsbad, Calif; PV4080
T2 sequence (P52333 1-1124): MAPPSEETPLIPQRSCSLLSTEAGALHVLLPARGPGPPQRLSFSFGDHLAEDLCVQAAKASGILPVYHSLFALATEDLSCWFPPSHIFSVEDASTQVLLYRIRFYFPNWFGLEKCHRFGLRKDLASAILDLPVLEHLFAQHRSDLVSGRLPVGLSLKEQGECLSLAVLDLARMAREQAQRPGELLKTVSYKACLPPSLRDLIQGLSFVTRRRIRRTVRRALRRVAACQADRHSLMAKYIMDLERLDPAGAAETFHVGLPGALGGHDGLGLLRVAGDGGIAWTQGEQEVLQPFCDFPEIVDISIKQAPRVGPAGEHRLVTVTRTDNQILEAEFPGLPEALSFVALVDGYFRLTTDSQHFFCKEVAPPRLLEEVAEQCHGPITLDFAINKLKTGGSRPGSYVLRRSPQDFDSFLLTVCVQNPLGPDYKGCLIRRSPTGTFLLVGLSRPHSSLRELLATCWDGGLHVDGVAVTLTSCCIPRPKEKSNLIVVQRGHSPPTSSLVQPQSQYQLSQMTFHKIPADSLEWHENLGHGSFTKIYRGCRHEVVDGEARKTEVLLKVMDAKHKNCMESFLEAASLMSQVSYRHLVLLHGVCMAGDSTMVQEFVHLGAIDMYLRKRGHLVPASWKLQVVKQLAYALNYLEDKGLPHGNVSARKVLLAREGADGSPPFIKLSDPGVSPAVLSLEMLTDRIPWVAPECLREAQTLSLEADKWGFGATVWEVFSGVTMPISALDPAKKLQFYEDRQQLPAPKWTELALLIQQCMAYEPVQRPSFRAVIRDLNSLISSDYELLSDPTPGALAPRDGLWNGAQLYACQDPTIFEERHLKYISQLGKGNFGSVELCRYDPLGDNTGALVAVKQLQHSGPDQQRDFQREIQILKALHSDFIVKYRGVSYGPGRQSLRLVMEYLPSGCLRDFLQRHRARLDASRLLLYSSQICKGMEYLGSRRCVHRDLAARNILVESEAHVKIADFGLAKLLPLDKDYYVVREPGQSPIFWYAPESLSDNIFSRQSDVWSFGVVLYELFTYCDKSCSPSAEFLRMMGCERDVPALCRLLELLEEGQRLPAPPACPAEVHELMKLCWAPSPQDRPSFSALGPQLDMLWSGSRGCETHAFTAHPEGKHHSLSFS
Summary of the method: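 Kinase at 2.5 nM with 10 µM Omnia Y7 peptide and 10 µM (Km app) or 1 mM ATP in 25 mM HEPES pH 7.4, 10 mM MgCl2, 1 mM DTT, 0.01% Triton X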

Human Tyk2 kinase domain = biological target: T3, Human Tyk2 kinase domain (Homo sapiens, UniProt P29597); experiment: Tyk2 Inhibition Assay (Omnia kinase fluorescence peptide substrate assay); conditions: averaged IC50 ranges; assay of Example A; 10 μM (Km app) or 1 mM ATP, 2 nM Tyk2
T3 construct: comprising amino acids 886 to 1187 with 10 additional histidine residues; 10xHis (histidine tag) (C, cleaved yes); made in house
T3 sequence (P29597 886-1187): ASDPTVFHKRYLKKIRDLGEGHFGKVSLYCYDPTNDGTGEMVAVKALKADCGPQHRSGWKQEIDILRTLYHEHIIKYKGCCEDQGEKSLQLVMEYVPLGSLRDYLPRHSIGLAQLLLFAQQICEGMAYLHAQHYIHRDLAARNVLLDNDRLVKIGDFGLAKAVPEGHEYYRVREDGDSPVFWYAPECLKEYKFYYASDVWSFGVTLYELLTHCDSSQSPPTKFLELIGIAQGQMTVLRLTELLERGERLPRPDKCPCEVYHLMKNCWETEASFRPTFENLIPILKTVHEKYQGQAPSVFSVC
Summary of the method: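 2 nM His-tag-cleaved kinase domain (aa 886–1187) with 8 μM Omnia Y12 peptide, 10 μM (Km app) or 1 mM ATP, pH 7.4 HEPES/10 mM MgCl2, 2% DMSO. Fluorescence (ex 360/em 485 nm) every 50 s for 45 min; IC50 from 4-parameter fit of POC, top dose 10 μM.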

JAK2 = biological target: T4, JAK2 (Homo sapiens, UniProt O60674); experiment: JAK2 Inhibition Assay (Omnia kinase fluorescence peptide substrate assay); conditions: averaged IC50 ranges; assay of Example C; 25 μM (Km app) or 1 mM ATP, 5 nM JAK2
T4 construct: purchased Invitrogen Corporation, Carlsbad, Calif; PV4288
T4 sequence (O60674 whole entry): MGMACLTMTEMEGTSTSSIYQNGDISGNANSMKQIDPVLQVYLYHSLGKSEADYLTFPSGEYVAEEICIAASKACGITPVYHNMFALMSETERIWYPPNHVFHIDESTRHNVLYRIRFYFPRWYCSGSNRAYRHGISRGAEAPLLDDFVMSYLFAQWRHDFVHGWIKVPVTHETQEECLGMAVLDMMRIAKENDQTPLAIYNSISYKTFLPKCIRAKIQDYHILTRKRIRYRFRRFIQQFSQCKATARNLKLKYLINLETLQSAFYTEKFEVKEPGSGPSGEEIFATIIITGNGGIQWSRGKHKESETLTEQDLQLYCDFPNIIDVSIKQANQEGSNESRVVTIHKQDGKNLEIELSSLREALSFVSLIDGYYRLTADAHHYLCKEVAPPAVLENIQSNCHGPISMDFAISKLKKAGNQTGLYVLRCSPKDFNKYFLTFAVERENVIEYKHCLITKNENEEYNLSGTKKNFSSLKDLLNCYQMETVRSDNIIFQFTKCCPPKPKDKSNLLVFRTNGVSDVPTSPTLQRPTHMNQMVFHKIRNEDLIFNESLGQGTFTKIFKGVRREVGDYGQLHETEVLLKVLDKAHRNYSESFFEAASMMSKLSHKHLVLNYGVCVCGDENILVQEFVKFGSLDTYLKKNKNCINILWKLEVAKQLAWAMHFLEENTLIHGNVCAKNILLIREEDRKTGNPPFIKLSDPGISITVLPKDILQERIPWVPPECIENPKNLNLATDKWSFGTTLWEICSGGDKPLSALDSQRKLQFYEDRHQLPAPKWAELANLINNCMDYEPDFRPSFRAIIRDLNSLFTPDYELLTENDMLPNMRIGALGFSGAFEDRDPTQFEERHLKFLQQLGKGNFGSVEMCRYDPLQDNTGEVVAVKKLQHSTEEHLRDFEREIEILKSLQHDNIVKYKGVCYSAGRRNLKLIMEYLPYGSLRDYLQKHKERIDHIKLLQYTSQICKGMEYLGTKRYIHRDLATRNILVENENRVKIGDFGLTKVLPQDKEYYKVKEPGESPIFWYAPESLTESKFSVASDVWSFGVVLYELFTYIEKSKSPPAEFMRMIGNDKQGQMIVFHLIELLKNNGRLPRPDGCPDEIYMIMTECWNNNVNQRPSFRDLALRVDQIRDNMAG
Summary of the method: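 A 10-point, 3-fold compound series (top 10 μM, 2% DMSO) was tested against 5 nM JAK2 with 10 μM Omnia Y7 substrate and either 1 mM or 25 μM (Km app) ATP. Buffer: pH 7.4 HEPES, MgCl2, Triton X-100, DTT. Sox fluorescence was monitored kinetically for 45 min; IC50 is the concentration giving 50 POC on a 4-parameter fit.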

T1 sequence (P23458 whole entry): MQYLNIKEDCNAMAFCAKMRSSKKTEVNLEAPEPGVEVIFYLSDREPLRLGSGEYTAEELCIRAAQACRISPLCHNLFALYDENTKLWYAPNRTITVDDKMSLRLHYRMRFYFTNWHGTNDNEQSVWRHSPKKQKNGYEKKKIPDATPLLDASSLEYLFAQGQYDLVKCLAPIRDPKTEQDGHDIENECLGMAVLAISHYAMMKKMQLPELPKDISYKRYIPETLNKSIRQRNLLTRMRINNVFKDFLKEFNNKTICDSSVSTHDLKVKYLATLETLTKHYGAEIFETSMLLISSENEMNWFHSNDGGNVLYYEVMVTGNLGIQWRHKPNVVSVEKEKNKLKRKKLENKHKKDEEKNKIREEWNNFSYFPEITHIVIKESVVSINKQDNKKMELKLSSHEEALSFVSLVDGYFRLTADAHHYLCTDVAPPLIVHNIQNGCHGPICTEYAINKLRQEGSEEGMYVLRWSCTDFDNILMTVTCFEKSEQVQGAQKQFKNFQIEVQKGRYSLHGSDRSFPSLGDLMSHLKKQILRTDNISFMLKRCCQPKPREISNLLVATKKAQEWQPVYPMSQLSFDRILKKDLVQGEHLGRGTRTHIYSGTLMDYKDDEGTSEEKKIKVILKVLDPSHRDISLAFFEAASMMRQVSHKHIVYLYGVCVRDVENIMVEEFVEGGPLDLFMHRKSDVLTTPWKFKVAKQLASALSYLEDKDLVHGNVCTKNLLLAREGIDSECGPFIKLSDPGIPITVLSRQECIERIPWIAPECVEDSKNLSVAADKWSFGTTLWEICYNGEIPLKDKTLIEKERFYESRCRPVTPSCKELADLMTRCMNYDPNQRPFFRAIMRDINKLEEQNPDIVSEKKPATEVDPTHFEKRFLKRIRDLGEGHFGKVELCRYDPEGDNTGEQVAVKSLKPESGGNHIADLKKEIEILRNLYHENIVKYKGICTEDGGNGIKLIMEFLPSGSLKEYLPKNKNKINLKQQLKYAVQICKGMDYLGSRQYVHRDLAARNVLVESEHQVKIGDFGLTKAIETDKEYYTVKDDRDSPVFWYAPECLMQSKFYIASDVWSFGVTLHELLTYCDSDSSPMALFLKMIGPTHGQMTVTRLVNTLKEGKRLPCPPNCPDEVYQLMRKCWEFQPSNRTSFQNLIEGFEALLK

Row | SMILES | IC50 (JAK1) | IC50 (JAK3) | IC50 (Human Tyk2 kinase domain) | IC50 (JAK2)
1 | Cn1cc(-c2cc3nccn3c(-c3cnn(C4(CC#N)CN(Cc5ccccc5)C4)c3)n2)cn1 [Example 88, 2-(1-benzyl-3-(4-(7-(1-methyl-1H-pyrazol-4-yl)imidazo[1,2-c]pyrimidin-5-yl)-1H-pyrazol-1-yl)azetidin-3-yl)acetonitrile] | > 1000 nM | > 1000 nM | 100 to 1000 nM | 100 to 1000 nM
2 | N#CCC(C1CC1)n1cc(-c2nc(-c3cnco3)cc3nccn23)cn1 (stereo not shown) [Example 43, 3-cyclopropyl-3-(4-(7-(oxazol-5-yl)imidazo[1,2-c]pyrimidin-5-yl)-1H-pyrazol-1-yl)propanenitrile] | > 1000 nM | > 1000 nM | 10 to 100 nM | 100 to 1000 nM
3 | COc1cncc(C(CC#N)n2cc(-c3nc(-c4cnn(C)c4)cc4nccn34)cn2)c1 (stereo not shown) [Example 9, 3-(5-methoxypyridin-3-yl)-3-(4-(7-(1-methyl-1H-pyrazol-4-yl)imidazo[1,2-c]pyrimidin-5-yl)-1H-pyrazol-1-yl)propanenitrile] | 100 to 1000 nM | > 1000 nM | 10 to 100 nM | 10 to 100 nM
4 | CC(C)n1cc(-c2cc3nccn3c(-c3cnn(C4(CC#N)CN(S(=O)(=O)C(F)(F)F)C4)c3)n2)cn1 [Example 101, 2-(3-(4-(7-(1-Isopropyl-1H-pyrazol-4-yl)imidazo[1,2-c]pyrimidin-5-yl)-1H-pyrazol-1-yl)-1-(trifluoromethylsulfonyl)azetidine-3-yl)acetonitrile] | < 10 nM | 100 to 1000 nM | < 10 nM | < 10 nM
5 | CC(=O)N1CCC(CC#N)(n2cc(-c3nc(-c4cnn(C)c4)cc4nccn34)cn2)C1 (stereo not shown) [Example 134, 2-(1-acetyl-3-(4-(7-(1-methyl-1H-pyrazol-4-yl)imidazo[1,2-c]pyrimidin-5-yl)-1H-pyrazol-1-yl)pyrrolidin-3-yl)acetonitrile] | > 1000 nM | > 1000 nM | 100 to 1000 nM | 100 to 1000 nM
6 | Cn1cc(-c2cc3nccn3c(-c3cnn(C4(CC#N)CN(S(=O)(=O)C5CCCCC5)C4)c3)n2)cn1 [Example 94, 2-(1-(cyclohexylsulfonyl)-3-(4-(7-(1-methyl-1H-pyrazol-4-yl)imidazo[1,2-c]pyrimidin-5-yl)-1H-pyrazol-1-yl)azetidin-3-yl)acctonitrile] | > 1000 nM | > 1000 nM | 10 to 100 nM | 100 to 1000 nM
7 | Cn1cc(-c2cc3nccn3c(-c3cnn(C4(CC#N)CN(S(=O)(=O)C(F)(F)F)C4)c3)n2)cn1 [Example 96, 2-(3-(4-(7-(1-Methyl-1H-pyrazol-4-yl)imidazo[1,2-c]pyrimidin-5-yl)-1H-pyrazol-1-yl)-1-(trifluoromethylsulfonyl)azetidin-3-yl)acetonitrile] | < 10 nM | 100 to 1000 nM | < 10 nM | < 10 nM
8 | CC(C)n1cc(-c2cc3nccn3c(-c3cnn(C(CC#N)C4CC4)c3)n2)cn1 (stereo not shown) [Example 34, 3-Cyclopropyl-3-(4-(7-(1-isopropyl-1H-pyrazol-4-yl)imidazo[1,2-c]pyrimidin-5-yl)-1H-pyrazol-1-yl)propanenitrile] | 100 to 1000 nM | 100 to 1000 nM | < 10 nM | 10 to 100 nM
9 | Cc1nn(C(CC#N)C2CC2)cc1-c1nc(-c2cnn(C)c2)cc2nccn12 (stereo not shown) [Example 109, 3-Cyclopropyl-3-(3-methyl-4-(7-(1-methyl-1H-pyrazol-4-yl)imidazo[1,2-c]pyrimidin-5-yl)-1H-pyrazol-1-yl)propanenitrile] | > 1000 nM | > 1000 nM | 10 to 100 nM | 100 to 1000 nM
10 | CC#CCN1CC(CC#N)(n2cc(-c3nc(-c4cnn(C)c4)cc4nccn34)cn2)C1 [Example 75, 2-(1-(but-2-ynyl)-3-(4-(7-(1-methyl-1H-pyrazol-4-yl)imidazo[1,2-c]pyrimidin-5-yl)-1H-pyrdzol-1-yl)azetidin-3-yl)acetonitrile] | > 1000 nM | > 1000 nM | 100 to 1000 nM | > 1000 nM
11 | CC(C)CN1CC(CC#N)(n2cc(-c3nc(-c4cnn(C)c4)cc4nccn34)cn2)C1 [Example 85, 2-(1-isobutyl-3-(4-(7-(1-methyl-1H-pyrazol-4-yl)imidazo[1,2-c]pyrimidin-5-yl)-1H-pyrazol-1-yl)azetidin-3-yl)acetonitrile] | 100 to 1000 nM | > 1000 nM | 10 to 100 nM | 100 to 1000 nM

Second part, the compound after the results:

Row | IC50 (JAK1) | IC50 (JAK3) | IC50 (Human Tyk2 kinase domain) | IC50 (JAK2) | SMILES
12 | 10 to 100 nM | 100 to 1000 nM | < 10 nM | 10 to 100 nM | Cn1cc(-c2cc3nccn3c(-c3ccn(C(CC#N)C4CC4)c3)n2)cn1 (stereo not shown) [Example 126, 3-Cyclopropyl-3-(3-(7-(1-methyl-1H-pyrazol-4-yl)imidazo[1,2-c]pyrimidin-5-yl)-1H-pyrrol-1-yl)propanenitrile]
13 | 10 to 100 nM | 100 to 1000 nM | < 10 nM | 10 to 100 nM | N#CCC(C1CCCC1)n1cc(-c2nc(-c3ccc(N4CCOCC4)cc3)cc3nccn23)cn1 (stereo not shown) [Example 113, 3-Cyclopentyl-3-(4-(7-(4-morpholinophenyl)imidazo[1,2-c]pyrimidin-5-yl)-1H-pyrazol-1-yl)propanenitrile]
14 | 10 to 100 nM | 100 to 1000 nM | < 10 nM | 10 to 100 nM | CN1CCN(c2ccc(-c3cc4nccn4c(-c4cnn(C5(CC#N)CN(CC(F)(F)F)C5)c4)n3)cc2)CC1 [Example 137, 2-(3-(4-(7-(4-(4-methylpiperazin-1-yl)phenyl)imidazo[1,2-c]pyrimidin-5-yl)-1H-pyrazol-1-yl)-1-(2,2,2-trifluoroethyl)azetidin-3-yl)acetonitrile]
15 | > 1000 nM | > 1000 nM | 100 to 1000 nM | 100 to 1000 nM | Cc1nn(CCC#N)cc1-c1nc(-c2cnn(C)c2)cc2nccn12 [Example 106, 3-(3-methyl-4-(7-(1-methyl-1H-pyrazol-4-yl)imidazo[1,2-c]pyrimidin-5-yl)-1H-pyrazol-1-yl)propanenitrile]
16 | 10 to 100 nM | > 1000 nM | < 10 nM | 100 to 1000 nM | N#CCC1(n2cc(-c3nc(-c4ccc(C(F)(F)F)cc4)cc4nccn34)cn2)CN(S(=O)(=O)C(F)(F)F)C1 [Example 146, 2-(3-(4-(7-(4-(trifluoromethyl)phenyl)imidazo[1,2-c]pyrimidin-5-yl)-1H-pyrazol-1-yl)-1-(trifluoromethylsulfonyl)azetidin-3-yl)acetonitrile]

From US8962596B2 (Array BioPharma Inc., priority 2010, dated 2015)
